PubChem BioAssay (NCI)
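Compound exposure: 48 hours, 5 concentrations, 96-well plates. TGI is the concentration that stops growth completely.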

Assays:
Assay in all cases: growth of human tumour cells (NCI), 48 h
HL-60(TB) leukemia = system: HL-60(TB) leukemia
SK-MEL-2 melanoma = system: SK-MEL-2 melanoma
SN12C renal = system: SN12C renal
M19-MEL melanoma = system: M19-MEL melanoma
UACC-257 melanoma = system: UACC-257 melanoma
HCC-2998 colon = system: HCC-2998 colon
SF-268 CNS = system: SF-268 CNS
OVCAR-5 ovarian = system: OVCAR-5 ovarian
LXFL 529 NSCLC = system: LXFL 529 NSCLC
OVCAR-8 ovarian = system: OVCAR-8 ovarian
OVCAR-3 ovarian = system: OVCAR-3 ovarian
ACHN renal = system: ACHN renal
K-562 leukemia = system: K-562 leukemia
HCT-116 colon = system: HCT-116 colon
DLD-1 colon = system: DLD-1 colon
CAKI-1 renal = system: CAKI-1 renal
MALME-3M melanoma = system: MALME-3M melanoma
KM20L2 colon = system: KM20L2 colon
U251 CNS = system: U251 CNS
RPMI-8226 leukemia = system: RPMI-8226 leukemia
IGROV1 ovarian = system: IGROV1 ovarian
SW-620 colon = system: SW-620 colon
786-0 renal = system: 786-0 renal
OVCAR-4 ovarian = system: OVCAR-4 ovarian
UACC-62 melanoma = system: UACC-62 melanoma
EKVX NSCLC = system: EKVX NSCLC
COLO 205 colon = system: COLO 205 colon
SR leukemia = system: SR leukemia
NCI-H23 lung = system: NCI-H23 lung
SNB-78 CNS = system: SNB-78 CNS
A549 NSCLC = system: A549 NSCLC
A498 renal = system: A498 renal
SK-OV-3 ovarian = system: SK-OV-3 ovarian
MOLT-4 leukemia = system: MOLT-4 leukemia
DMS 114 small cell lung = system: DMS 114 small cell lung
HT29 colon = system: HT29 colon
HOP-62 NSCLC = system: HOP-62 NSCLC
M14 melanoma = system: M14 melanoma
NCI-H460 lung = system: NCI-H460 lung
LOX IMVI melanoma = system: LOX IMVI melanoma
NCI-H226 lung = system: NCI-H226 lung
CCRF-CEM leukemia = system: CCRF-CEM leukemia
SK-MEL-5 melanoma = system: SK-MEL-5 melanoma
UO-31 renal = system: UO-31 renal
KM12 colon = system: KM12 colon
SF-295 CNS = system: SF-295 CNS
SNB-19 CNS = system: SNB-19 CNS
HCT-15 colon = system: HCT-15 colon
NCI-H522 lung = system: NCI-H522 lung
SF-539 CNS = system: SF-539 CNS
DMS 273 small cell lung = system: DMS 273 small cell lung
TK-10 renal = system: TK-10 renal
HOP-92 NSCLC = system: HOP-92 NSCLC
SNB-75 CNS = system: SNB-75 CNS
HOP-18 NSCLC = system: HOP-18 NSCLC
RXF 393 renal = system: RXF 393 renal
SK-MEL-28 melanoma = system: SK-MEL-28 melanoma

CCCCC#COS(=O)(=O)c1ccc(C)cc1
TGI (HL-60(TB) leukemia): > 100 µM
TGI (SK-MEL-2 melanoma): > 100 µM
TGI (SN12C renal): > 100 µM
TGI (M19-MEL melanoma): > 100 µM
TGI (UACC-257 melanoma): > 100 µM
TGI (HCC-2998 colon): > 100 µM
TGI (SF-268 CNS): > 100 µM
TGI (OVCAR-5 ovarian): > 100 µM
TGI (LXFL 529 NSCLC): > 100 µM
TGI (OVCAR-8 ovarian): > 100 µM
TGI (OVCAR-3 ovarian): > 100 µM
TGI (ACHN renal): > 100 µM
TGI (K-562 leukemia): > 100 µM
TGI (HCT-116 colon): > 100 µM
TGI (DLD-1 colon): > 100 µM
TGI (CAKI-1 renal): > 100 µM
TGI (MALME-3M melanoma): > 100 µM
TGI (KM20L2 colon): > 100 µM
TGI (U251 CNS): > 100 µM
TGI (RPMI-8226 leukemia): > 100 µM
TGI (IGROV1 ovarian): > 100 µM
TGI (SW-620 colon): > 100 µM
TGI (786-0 renal): > 100 µM
TGI (OVCAR-4 ovarian): > 100 µM
TGI (UACC-62 melanoma): > 100 µM
TGI (EKVX NSCLC): > 100 µM
TGI (COLO 205 colon): > 100 µM
TGI (SR leukemia): > 100 µM
TGI (NCI-H23 lung): > 100 µM
TGI (SNB-78 CNS): > 100 µM
TGI (A549 NSCLC): > 100 µM
TGI (A498 renal): > 100 µM
TGI (SK-OV-3 ovarian): > 100 µM
TGI (MOLT-4 leukemia): > 100 µM
TGI (DMS 114 small cell lung): > 100 µM
TGI (HT29 colon): > 100 µM
TGI (HOP-62 NSCLC): > 100 µM
TGI (M14 melanoma): > 100 µM
TGI (NCI-H460 lung): > 100 µM
TGI (LOX IMVI melanoma): > 100 µM
TGI (NCI-H226 lung): 84.9 µM
TGI (CCRF-CEM leukemia): > 100 µM
TGI (SK-MEL-5 melanoma): > 100 µM
TGI (UO-31 renal): > 100 µM
TGI (KM12 colon): > 100 µM
TGI (SF-295 CNS): > 100 µM
TGI (SNB-19 CNS): > 100 µM
TGI (HCT-15 colon): > 100 µM
TGI (NCI-H522 lung): > 100 µM
TGI (SF-539 CNS): > 100 µM

CCCCCCC1NN(C(C)=O)C(CCCCCC)NN1C(C)=O (stereo unspecified)
TGI (HL-60(TB) leukemia): > 100 µM
TGI (SK-MEL-2 melanoma): > 100 µM
TGI (DMS 273 small cell lung): > 100 µM
TGI (SN12C renal): > 100 µM
TGI (M19-MEL melanoma): > 100 µM
TGI (UACC-257 melanoma): > 100 µM
TGI (TK-10 renal): > 100 µM
TGI (HCC-2998 colon): > 100 µM
TGI (HOP-92 NSCLC): > 100 µM
TGI (OVCAR-5 ovarian): > 100 µM
TGI (LXFL 529 NSCLC): > 100 µM
TGI (OVCAR-8 ovarian): > 100 µM
TGI (OVCAR-3 ovarian): > 100 µM
TGI (ACHN renal): > 100 µM
TGI (K-562 leukemia): > 100 µM
TGI (HCT-116 colon): > 100 µM
TGI (DLD-1 colon): > 100 µM
TGI (CAKI-1 renal): > 100 µM
TGI (MALME-3M melanoma): > 100 µM
TGI (KM20L2 colon): > 100 µM
TGI (U251 CNS): > 100 µM
TGI (RPMI-8226 leukemia): 67.4 µM
TGI (IGROV1 ovarian): > 100 µM
TGI (SW-620 colon): 46.1 µM
TGI (786-0 renal): > 100 µM
TGI (OVCAR-4 ovarian): > 100 µM
TGI (SNB-75 CNS): > 100 µM
TGI (UACC-62 melanoma): > 100 µM
TGI (EKVX NSCLC): > 100 µM
TGI (COLO 205 colon): > 100 µM
TGI (NCI-H23 lung): > 100 µM
TGI (SK-OV-3 ovarian): > 100 µM
TGI (MOLT-4 leukemia): > 100 µM
TGI (HT29 colon): > 100 µM
TGI (HOP-62 NSCLC): > 100 µM
TGI (M14 melanoma): > 100 µM
TGI (NCI-H460 lung): 33.7 µM
TGI (HOP-18 NSCLC): > 100 µM
TGI (LOX IMVI melanoma): 46.7 µM
TGI (NCI-H226 lung): > 100 µM
TGI (CCRF-CEM leukemia): > 100 µM
TGI (SK-MEL-5 melanoma): > 100 µM
TGI (UO-31 renal): > 100 µM
TGI (KM12 colon): > 100 µM
TGI (SF-295 CNS): > 100 µM
TGI (SNB-19 CNS): > 100 µM
TGI (HCT-15 colon): > 100 µM
TGI (NCI-H522 lung): > 100 µM
TGI (SF-539 CNS): > 100 µM

Cc1ccc(O)c(N=Nc2ccc(S(=O)(=O)O)cc2)n1
TGI (HL-60(TB) leukemia): > 100 µM
TGI (RXF 393 renal): > 100 µM
TGI (DMS 273 small cell lung): > 100 µM
TGI (SN12C renal): > 100 µM
TGI (M19-MEL melanoma): > 100 µM
TGI (TK-10 renal): > 100 µM
TGI (HOP-92 NSCLC): > 100 µM
TGI (SF-268 CNS): > 100 µM
TGI (LXFL 529 NSCLC): > 100 µM
TGI (OVCAR-8 ovarian): > 100 µM
TGI (ACHN renal): > 100 µM
TGI (K-562 leukemia): > 100 µM
TGI (HCT-116 colon): > 100 µM
TGI (DLD-1 colon): > 100 µM
TGI (CAKI-1 renal): > 100 µM
TGI (KM20L2 colon): > 100 µM
TGI (U251 CNS): > 100 µM
TGI (RPMI-8226 leukemia): > 100 µM
TGI (IGROV1 ovarian): > 100 µM
TGI (SW-620 colon): > 100 µM
TGI (786-0 renal): > 100 µM
TGI (UACC-62 melanoma): > 100 µM
TGI (EKVX NSCLC): 47.9 µM
TGI (COLO 205 colon): > 100 µM
TGI (NCI-H23 lung): > 100 µM
TGI (A549 NSCLC): > 100 µM
TGI (A498 renal): > 100 µM
TGI (SK-OV-3 ovarian): > 100 µM
TGI (MOLT-4 leukemia): > 100 µM
TGI (DMS 114 small cell lung): > 100 µM
TGI (M14 melanoma): > 100 µM
TGI (NCI-H460 lung): > 100 µM
TGI (HOP-18 NSCLC): > 100 µM
TGI (LOX IMVI melanoma): > 100 µM
TGI (CCRF-CEM leukemia): > 100 µM
TGI (SK-MEL-5 melanoma): > 100 µM
TGI (UO-31 renal): > 100 µM
TGI (SF-295 CNS): > 100 µM
TGI (SK-MEL-28 melanoma): > 100 µM
TGI (HCT-15 colon): > 100 µM
TGI (NCI-H522 lung): > 100 µM
TGI (SF-539 CNS): > 100 µM
